# Data taken from article PMC5668067, “Phase I dose-escalation study of the c-Met tyrosine kinase inhibitor SAR125844 in Asian patients with advanced solid tumors, including patients with MET-amplified gastric cancer” (Oncotarget, 2017).
# System: Asian patients with solid tumors
# Assay: phase I safety: treatment-emergent adverse events (NCI CTCAE v4.03), safety population
# Type: in vivo
# Experimental: SAR was administered by weekly intravenous infusion on days 1, 8, 15, and 22 of each 28–day cycle. The starting dose was 260 mg/m^2, and dose increments of 30% were made, to a maximum of 570 mg/m^2. Treatment continued until disease progression, unacceptable toxicity, or consent withdrawal. Patients were screened within 21 days before the first administration and followed for 30 days after the last administration.
# The safety population consisted of all patients exposed to SAR, regardless of the amount of treatment administered.
# [1] = dose-escalation cohort, 260 mg/m^2 (N = 6)
# [2] = dose-escalation cohort, 340 mg/m^2 (N = 4)
# [3] = dose-escalation cohort, 440 mg/m^2 (N = 3)
# [4] = dose-escalation cohort, 570 mg/m^2 (N = 6)
# [5] = dose-expansion cohort, All (N = 19)
# [6] = dose-expansion cohort, GC (N = 14)
structure (smiles),measurement,setting,value
O=C(NCCN1CCOCC1)Nc1nc2ccc(Sc3nnc4ccc(-c5ccc(F)cc5)nn34)cc2s1 [SAR125844],patients who discontinued treatment because of a TEAE,TEAE considered unrelated to the study drug,One
same,TEAE Abdominal pains,Total (N = 38),8 (21.1) n (%)
same,TEAE Back pain,Total (N = 38),5 (13.2) n (%)
same,TEAE Cancer pain,Total (N = 38),4 (10.5) n (%)
same,TEAE Constipation,Total (N = 38),8 (21.1) n (%)
same,TEAE Cough,Total (N = 38),4 (10.5) n (%)
same,TEAE Decreased appetite,Total (N = 38),11 (28.9) n (%)
same,TEAE Diarrhea,Total (N = 38),5 (13.2) n (%)
same,"TEAE Edema, peripheral",Total (N = 38),4 (10.5) n (%)
same,TEAE Fatigue/asthenia,Total (N = 38),8 (21.1) n (%)
same,TEAE Injection site reaction/phlebitis,Total (N = 38),7 (18.4) n (%)
same,TEAE Insomnia,Total (N = 38),4 (10.5) n (%)
same,TEAE Nausea,Total (N = 38),14 (36.8) n (%)
same,TEAE Pyrexia,Total (N = 38),7 (18.4) n (%)
same,TEAE Rash,Total (N = 38),4 (10.5) n (%)
same,TEAE Vomiting,Total (N = 38),13 (34.2) n (%)
same,deaths due to adverse events,all patients (N = 38),no deaths
same,frequency of abdominal pains,all patients (N = 38),21.1%
same,frequency of constipation,all patients (N = 38),21.1%
same,frequency of decreased appetite,all patients (N = 38),28.9%
same,frequency of fatigue or asthenia,all patients (N = 38),21.1%
same,frequency of nausea,all patients (N = 38),36.8%
same,frequency of vomiting,all patients (N = 38),34.2%
same,patients with at least one dose modification,all patients (N = 38),Nine
same,patients with drug-related Grade ≥ 3 AEs,all patients (N = 38),7.9%
same,patients with infusion interrupted because of a grade 2 infusion-related reaction,all patients (N = 38),one
same,patients with study-drug related Grade ≥ 3 TEAEs,all patients (N = 38),three
same,serious TEAEs considered study-drug related,all patients (N = 38),none
same,patients with Grade ≥ 3 TEAEs,"all patients (N = 38), 15 patients",39.5%
same,patients with study-drug related TEAEs,"all patients (N = 38), 22 patients",57.9%
same,patients with TEAEs,"all patients (N = 38), 36 patients",94.7%
same,patients with serious TEAEs,"all patients (N = 38), eight patients",21.1%
same,TEAE Abdominal pains,[1],1 (16.7) n (%)
same,TEAE Back pain,[1],3 (50.0) n (%)
same,TEAE Cancer pain,[1],0 (0) n (%)
same,TEAE Constipation,[1],2 (33.3) n (%)
same,TEAE Cough,[1],2 (33.3) n (%)
same,TEAE Decreased appetite,[1],1 (16.7) n (%)
same,TEAE Diarrhea,[1],0 (0) n (%)
same,"TEAE Edema, peripheral",[1],0 (0) n (%)
same,TEAE Fatigue/asthenia,[1],3 (50) n (%)
same,TEAE Injection site reaction/phlebitis,[1],1 (16.7) n (%)
same,TEAE Insomnia,[1],1 (16.7) n (%)
same,TEAE Nausea,[1],1 (16.7) n (%)
same,TEAE Pyrexia,[1],4 (66.7) n (%)
same,TEAE Rash,[1],2 (33.3) n (%)
same,TEAE Vomiting,[1],1 (16.7) n (%)
same,TEAE Abdominal pains,[2],0 (0) n (%)
same,TEAE Back pain,[2],0 (0) n (%)
same,TEAE Cancer pain,[2],0 (0) n (%)
same,TEAE Constipation,[2],0 (0) n (%)
same,TEAE Cough,[2],1 (25.0) n (%)
same,TEAE Decreased appetite,[2],1 (25.0) n (%)
same,TEAE Diarrhea,[2],0 (0) n (%)
same,"TEAE Edema, peripheral",[2],0 (0) n (%)
same,TEAE Fatigue/asthenia,[2],0 (0) n (%)
same,TEAE Injection site reaction/phlebitis,[2],0 (0) n (%)
same,TEAE Insomnia,[2],0 (0) n (%)
same,TEAE Nausea,[2],2 (50) n (%)
same,TEAE Pyrexia,[2],0 (0) n (%)
same,TEAE Rash,[2],1 (25.0) n (%)
same,TEAE Vomiting,[2],1 (25.0) n (%)
same,TEAE Abdominal pains,[3],1 (33.3) n (%)
same,TEAE Back pain,[3],0 (0) n (%)
same,TEAE Cancer pain,[3],1 (33.3) n (%)
same,TEAE Constipation,[3],1 (33.3) n (%)
same,TEAE Cough,[3],0 (0) n (%)
same,TEAE Decreased appetite,[3],1 (33.3) n (%)
same,TEAE Diarrhea,[3],0 (0) n (%)
same,"TEAE Edema, peripheral",[3],0 (0) n (%)
same,TEAE Fatigue/asthenia,[3],1 (33.3) n (%)
same,TEAE Injection site reaction/phlebitis,[3],0 (0) n (%)
same,TEAE Insomnia,[3],0 (0) n (%)
same,TEAE Nausea,[3],0 (0) n (%)
same,TEAE Pyrexia,[3],0 (0) n (%)
same,TEAE Rash,[3],0 (0) n (%)
same,TEAE Vomiting,[3],0 (0) n (%)
same,TEAE Abdominal pains,[4],0 (0) n (%)
same,TEAE Back pain,[4],0 (0) n (%)
same,TEAE Cancer pain,[4],2 (33.3) n (%)
same,TEAE Constipation,[4],1 (16.7) n (%)
same,TEAE Cough,[4],0 (0) n (%)
same,TEAE Decreased appetite,[4],0 (0) n (%)
same,TEAE Diarrhea,[4],0 (0) n (%)
same,"TEAE Edema, peripheral",[4],1 (16.7) n (%)
same,TEAE Fatigue/asthenia,[4],0 (0) n (%)
same,TEAE Injection site reaction/phlebitis,[4],1 (16.7) n (%)
same,TEAE Insomnia,[4],0 (0) n (%)
same,TEAE Nausea,[4],3 (50) n (%)
same,TEAE Pyrexia,[4],0 (0) n (%)
same,TEAE Rash,[4],0 (0) n (%)
same,TEAE Vomiting,[4],1 (16.7) n (%)
same,TEAE Back pain,[5],2 (10.5) n (%)
same,TEAE Cancer pain,[5],1 (5.3) n (%)
same,TEAE Constipation,[5],4 (21.1) n (%)
same,TEAE Cough,[5],1 (5.3) n (%)
same,TEAE Decreased appetite,[5],8 (42.1) n (%)
same,TEAE Diarrhea,[5],5 (26.3) n (%)
same,"TEAE Edema, peripheral",[5],3 (15.8) n (%)
same,TEAE Fatigue/asthenia,[5],4 (21.1) n (%)
same,TEAE Injection site reaction/phlebitis,[5],5 (26.3) n (%)
same,TEAE Insomnia,[5],3 (15.8) n (%)
same,TEAE Nausea,[5],8 (42.1) n (%)
same,TEAE Pyrexia,[5],3 (15.8) n (%)
same,TEAE Rash,[5],1 (5.3) n (%)
same,TEAE Vomiting,[5],10 (52.6) n (%)
same,TEAE Abdominal pains,[6],2 (14.3) n (%)
same,TEAE Back pain,[6],2 (14.3) n (%)
same,TEAE Cancer pain,[6],1 (7.1) n (%)
same,TEAE Constipation,[6],2 (14.3) n (%)
same,TEAE Cough,[6],1 (7.1) n (%)
same,TEAE Decreased appetite,[6],5 (35.7) n (%)
same,TEAE Diarrhea,[6],4 (28.6) n (%)
same,"TEAE Edema, peripheral",[6],2 (14.3) n (%)
same,TEAE Fatigue/asthenia,[6],2 (14.3) n (%)
same,TEAE Injection site reaction/phlebitis,[6],4 (28.6) n (%)
same,TEAE Insomnia,[6],2 (14.3) n (%)
same,TEAE Nausea,[6],4 (28.6) n (%)
same,TEAE Pyrexia,[6],1 (7.1) n (%)
same,TEAE Rash,[6],1 (7.1) n (%)
same,TEAE Vomiting,[6],6 (42.9) n (%)
same,cases of transaminase increase (grade ≥ 3) leading to dose modification,laboratory findings,Two
